Literature values, collected in PubChem BioAssay AID1259409 (Chemical Carcinogenesis Research Information System (CCRIS), 2018).

Test system: rodent chemically induced tumor inhibition, incidence and multiplicity
Test: CCRIS tumor inhibitor studies
Settings: Carcinogen: 2,2'-DIHYDROXY-DI-N-PROPYLNITROSAMINE, 13147-25-6, Carcinogen: 2,2'-DIHYDROXY-DI-N-PROPYLNITROSAMINE, 13147-25-6, Dose [Inhibitor]: 0, Route [Inhibitor]: ORAL, Species: RAT, Strain/Sex: F344/MALE, Promoter: NONE USED

Question: For CCCCCCCCCCCCCCCC(=O)CC(=O)CCCCCCCCCCCCCCC, which “tumour outcome (control, treated, inhibition, significance)” value (36909-64-6, N-ETHYL-N-HYDROXYETHYL- NITROSAMINE, 3,2'DIMETHYL-4-A, 36909-64-6, N-ETHYL-N-HYDROXYETHYL- NITROSAMINE, 3,2'DIMETHYL-4-A, 0.2% IN DIET BEGINNING 1 WK POST LAST CARCINOGEN DOSE AND CONTINUING FOR 32 WK (STUDY DURATION: 36 WK), Target Tissue: Type of Lesion: URINARY BLADDER: CARCINOMA, Dose [Carcinogen]: 1000 MG/KG IP DHPN 2X, 1500 MG/KG GAV EHEN 2X AND 75 MG/KG SC DMAB 3X GIVEN OVER THE INITIAL 3 WK AT 3-4 D INTERVALS) is on record?
Answer: Its value is 1/14 (7%), 1/15 (7%), 0%, not significant.

Question: And the “tumour outcome (control, treated, inhibition, significance)” value (53609-64-6, N-ETHYL-N-HYDROXYETHYL- NITROSAMINE, 3,2'-DIMETHYL-4-, 53609-64-6, N-ETHYL-N-HYDROXYETHYL- NITROSAMINE, 3,2'-DIMETHYL-4-, 0.2% IN DIET BEGINNING 1 WK POST LAST CARCINOGEN DOSE AND CONTINUING FOR 32 WK (STUDY DURATION: 36 WK), Target Tissue: Type of Lesion: LARGE INTESTINE: ADENOMA, Dose [Carcinogen]: 1000 MG/KG IP DHPN 2X, 1500 MG/KG GAV EHEN 2X AND 75 MG/KG SC DMAB 3X GIVEN OVER THE INITIAL 3 WK PERIOD AT 3-4 D INTERV)?
Answer: The value was 7/14 (50%), 7,15 (47%), 6%, not calculated.

Question: What about the outcome (53609-64-6, N-ETHYL-N-HYDROXYETHYL- NITROSAMINE, 3,2'-DIMETHYL-4-, 53609-64-6, N-ETHYL-N-HYDROXYETHYL- NITROSAMINE, 3,2'-DIMETHYL-4-, 0.2% IN DIET BEGINNING 1 WK POST LAST CARCINOGEN DOSE AND CONTINUING FOR 32 WK (STUDY DURATION: 36 WK), Target Tissue: Type of Lesion: URINARY BLADDER: PAPILLOMA, Dose [Carcinogen]: 1000 MG/KG IP DHPN 2X, 1500 MG/KG GAV EHEN 2X AND 75 MG/KG SC DMAB 3X GIVEN OVER THE INITIAL 3 WK PERIOD AT 3-4 D INTERV) of the same compound?
Answer: Its outcome is 0/14 (0%), 3/15 (20%), -100%, not calculated.

Question: And the “tumour outcome (control, treated, inhibition, significance)” value (53609-64-6, N-ETHYL-N-HYDROXYETHYL- NITROSAMINE, 3,2'-DIMETHYL-4-, 53609-64-6, N-ETHYL-N-HYDROXYETHYL- NITROSAMINE, 3,2'-DIMETHYL-4-, 02% IN DIET BEGINNING 1 WK POST LAST CARCINOGEN DOSE AND CONTINUING FOR 32 WK (STUDY DURATION: 36 WK), Target Tissue: Type of Lesion: LUNG: CARCINOMA, Dose [Carcinogen]: 1000 MG/KG IP DHPN 2X , 1500 MG/KG GAV EHEN 2X AND 75 MG/KG SC DMAB 3X GIVEN OVER THE INITIAL 3 WK PERIOD AT 3-4 D INTER)?
Answer: Its value is 1/14 (7%), 3/15 (20%), -186%, not calculated.

Question: What about the “tumour outcome (control, treated, inhibition, significance)” value (53609-64-6, N-ETHYL-N-HYDROXYETHYL- NITROSAMINE, 3,2'DIMETHYL-4-A, 53609-64-6, N-ETHYL-N-HYDROXYETHYL- NITROSAMINE, 3,2'DIMETHYL-4-A, 0.2% IN DIET BEGINNING 1 WK POST LAST CARCINOGEN DOSE AND CONTINUING FOR 32 WK (STUDY DURATION: 36 WK), Target Tissue: Type of Lesion: LIVER: HEPATOCELLULAR CARCINOMA, Dose [Carcinogen]: 1000 MG/KG IP DHPN 2X, 1500 MG/KG GAV EHEN 2X AND 75 MG/KG SC DMAB 3X GIVEN OVER THE INITIAL 3 WK AT 3-4 D INTERVALS) of the same compound?
Answer: Its value is 6/14 (43%), 1/15 (7%), 84%, p<0.05.

Question: And the “tumour outcome (control, treated, inhibition, significance)” value (53609-64-6, N-ETHYL-N-HYDROXYETHYLNITROSAMINE, 3,2'-DIMETHYL-1,4-, 53609-64-6, N-ETHYL-N-HYDROXYETHYLNITROSAMINE, 3,2'-DIMETHYL-1,4-, 0.2% IN DIET FOR 4 WK BEGINNING 1 D PRIOR TO FIRST CARCINOGEN DOSE (STUDY DURATION: 36 WK), Target Tissue: Type of Lesion: KIDNEY: ADENOMA, Dose [Carcinogen]: 1000 MG/KG BW DHPN TWICE, 1500 MG/KG EHEN TWICE, 75 MG/KG BW DMAB 3 TIMES, SEQUENTIALLY OVER 3 WK)?
Answer: The value was 6/10 (60%), 7/13 (54%), 10%, not significant.

Question: And the “tumour outcome (control, treated, inhibition, significance)” value (53609-64-6, N-ETHYL-N-HYDROXYETHYLNITROSAMINE, 3,2'-DIMETHYL-1,4-, 53609-64-6, N-ETHYL-N-HYDROXYETHYLNITROSAMINE, 3,2'-DIMETHYL-1,4-, 0.2% IN DIET FOR 4 WK BEGINNING 1 D PRIOR TO FIRST CARCINOGEN DOSE (STUDY DURATION: 36 WK), Target Tissue: Type of Lesion: LUNG: ADENOMA, Dose [Carcinogen]: 1000 MG/KG BW DHPN TWICE, 1500 MG/KG EHEN TWICE, 75 MG/KG BW DMAB 3 TIMES, SEQUENTIALLY OVER 3 WK)?
Answer: The value was 5/10 (50%), 6/13 (46%), 8%, not significant.

Question: What about the “tumour outcome (control, treated, inhibition, significance)” value (53609-64-6, N-ETHYL-N-HYDROXYETHYLNITROSAMINE, 3,2'-DIMETHYL-4-AMINO-, 53609-64-6, N-ETHYL-N-HYDROXYETHYLNITROSAMINE, 3,2'-DIMETHYL-4-AMINO-, 0.2% IN DIET FOR 32 WK BEGINNING 1 WK POST CARCINOGEN TREATMENT (STUDY DURATION: 36 WK), Target Tissue: Type of Lesion: KIDNEY: ADENOMA, Dose [Carcinogen]: 1000 MG/KG BW DHPN TWICE, 1500 MG/KG BW EHEN TWICE, 75 MG/KG BW 3 TIMES ADMINISTERED OVER FIRST 3 WK) of the same compound?
Answer: Its value is 6/14 (43%), 5/15 (33%), 23% , not significant.

Question: What about the “tumour outcome (control, treated, inhibition, significance)” value (53609-64-6, N-ETHYL-N-HYDROXYETHYLNITROSAMINE, 3,2'-DIMETHYL-4-AMINO-, 53609-64-6, N-ETHYL-N-HYDROXYETHYLNITROSAMINE, 3,2'-DIMETHYL-4-AMINO-, 0.2% IN DIET FOR 32 WK BEGINNING 1 WK POST CARCINOGEN TREATMENT (STUDY DURATION: 36 WK), Target Tissue: Type of Lesion: KIDNEY: NEPHROBLASTOMA, Dose [Carcinogen]: 1000 MG/KG BW DHPN TWICE, 1500 MG/KG BW EHEN TWICE, 75 MG/KG BW 3 TIMES ADMINISTERED OVER FIRST 3 WK) of the same compound?
Answer: Its value is 2/14 (14%), 2/15 (13%), 7%, not significant.

Question: And the “tumour outcome (control, treated, inhibition, significance)” value (53609-64-6, N-ETHYL-N-HYDROXYETHYLNITROSAMINE, 3,2'-DIMETHYL-4-AMINO-, 53609-64-6, N-ETHYL-N-HYDROXYETHYLNITROSAMINE, 3,2'-DIMETHYL-4-AMINO-, 0.2% IN DIET FOR 32 WK BEGINNING 1 WK POST CARCINOGEN TREATMENT (STUDY DURATION: 36 WK), Target Tissue: Type of Lesion: KIDNEY: TRANSITIONAL CELL CARCINOMA, Dose [Carcinogen]: 1000 MG/KG BW DHPN TWICE, 1500 MG/KG BW EHEN TWICE, 75 MG/KG BW 3 TIMES ADMINISTERED OVER FIRST 3 WK)?
Answer: The value was 1/14 (7%), 1/15 (7%), 0%, not significant.
